The values that follow come from article PMC6863902, “Functional and structural basis of E. coli enolase inhibition by SF2312: a mimic of the carbanion intermediate” (Scientific Reports, 2019).

Test [1] addresses T1, recombinant E. coli enolase (Escherichia coli, UniProt P0A6P9).
T1 construct: made in house
Nature of the test: E. coli enolase enzymatic inhibition assay (PEP absorbance at 240 nm). The following applies: for IC50: enolase 40 nM, 0.5 mM 2-PGA, 25 °C; for Ki: from IC50 by Cheng-Prusoff equation and KM. The format is biochemical. The procedure: To assess the relative affinity of SF2312 and KSF for enolase, the inhibitory constant, Ki, was determined from IC50 values using the Cheng-Prusoff equation and KM values.
The activity and inhibition of E. coli enolase described in this study was carried out using the procedure as we previously reported. Briefly, enolase activity was measured at 25 °C in the forward (formation of PEP from 2‐PGA) direction by direct monitoring of the increase in PEP absorbance at 240 nm, using a DU 640 spectrophotometer (Beckman). The standard assay contained 50 mM Tris pH 8.0, 0.1 M KCl, 0.5 mM 2-PGA and 1 mM MgSO4. The reactions were carried out at a final volume of 500 μL. Initial velocities came from the slopes of linear progress curves of 1 minute duration. One unit of enolase activity was defined as the amount of protein which catalyzes the formation of 1 μmole PEP from 2-PGA in 1 minute. The concentration of PEP was determined using a molar extinction coefficient (Ɛ240nm = 1400 M^−1 cm^1).
Inhibition of enolase activity by SF2312 and its analog, KSF was performed at a constant enolase concentration of 40 nM. The compounds, supplied in water, were preincubated with protein at concentrations ranging from 2 nM to 20 µM for 5 minutes in the assay buffer consisting of 50 mM Tris pH 8.0, 0.1 M KCl and 1 mM MgSO4. The reaction was initiated by the addition of 0.5 mM 2-PGA. The decrease in enolase activity upon inhibition was monitored at 5 second intervals for a period of 5 minutes at λ =240 nm. The average half maximal inhibitory concentrations (IC50) was calculated from initial rates of absorbance increase plotted as a function of ligand concentration using GraphPad Prism software (Fig. 2). Ki values were calculated using the Cheng-Prusoff equation from the experimental IC50 and Km values.

For test [2], the target named is T1, recombinant E. coli enolase. Nature of the test: Differential scanning calorimetry thermal unfolding of enolase with inhibitors. It counts as binding. The following applies: for protein thermal melting point (Tm): enolase 6 μM with ligand 60 μM, apo enolase 52.7 °C; for shift of thermal melting point: versus enolase without inhibitor (∼53 °C). The procedure: We used differential scanning calorimetry to analyze the direct in vitro binding of SF2312 and KSF to recombinant E. coli enolase (see Fig. 3). […] Upon overnight treatment with SF2312, the protein thermal melting point was ~82 °C, a shift of ∼29 °C.
The DCS experiment was performed as described previously. Prior to analysis, purified E. coli enolase was buffer exchanged into 20 mM HEPES (pH 7.0), 50 mM NaCl and 2 mM MgCl2. The concentrations of protein and ligand were adjusted to 6 μM and 60 μM, respectively. Protein samples with and without ligand were heated from 0–120 °C at 1 °C/min using a NanoDSC instrument (TA instruments). The samples were degassed for 15 minutes prior to injection into the calorimeter cell. The reference cell was filled with buffer for all runs. A pressure of 3 atm was applied to both cells during the run. The excess heat capacity scans for the protein transitions were obtained by subtracting a control scan of buffer versus buffer. The data were corrected for the difference in heat capacity between the initial and the final state by using a sigmoid baseline in the NanoAnalyze software (TA instruments) and a two-state transition model was used to determine the denaturation temperature (Tm) (Fig. 3).

Test [3] concerns E. coli ATCC 25922. Kind of test: Checkerboard synergy of SF2312 with fosfomycin. It counts as cell-based, Escherichia coli. Particulars: for MIC: Escherichia coli; for maximum drop of E. coli MIC when co-administered: SF2312 co-administered with fosfomycin. As for the experimental part:
It should be noted that the target of fosfomycin, UDP-N-acetylglucosamine enolpyruvyl transferase (MurA), acts immediately downstream of enolase utilizing PEP in the first step of peptidoglycan synthesis. Since targeting two sequential enzymes in the same metabolic pathway can be a powerful synergistic mechanism for two antibiotics, an evidence for synergy between SF2312 and fosfomycin was assessed by the checkerboard method. […] The observed synergy supports the notion that the antibacterial activity of SF2312 is due to the inhibition of enolase since, fosfomycin is known to have minimal to no effect on the enzymes utilizing PEP, such as enolase.
(§1) To evaluate the activity of SF2312 against Gram-positive and Gram-negative bacteria, we have determined the minimal inhibitory concentration (MIC) for Escherichia coli ATCC 25922, Staphylococcus aureus ATCC […], Pseudomonas aeruginosa ATCC 27853, and Acinetobacter baumannii ATTC 19606 using the microdilution broth assay based on Clinical and Laboratory Standards Institute. Concentrations of SF2312 and the standard antibiotics tested were serially diluted to the following ranges: SF2312, 300 to 0.2 μg/mL; trimethoprim 10 to 0.01 μg/mL and fosfomycin, 20 to 0.040 μg/mL. For synergy studies, using the checkerboard method the following concentration range was used: fosfomycin 10 to 0.156 μg/mL and SF2312 100 to 0.05 μg/mL. The cation-adjusted Mueller-Hinton broth was supplemented with 25 μg/mL glucose-6-phosphate. Growth was monitored at Abs 600 nm. The MIC of each antimicrobial agent alone and in combination was defined as the lowest concentration that inhibited visible growth of the organism and were determined in duplicate.
The definition of synergy used in these studies was the fractional inhibitory concentration (FIC) index, represented by the formula FIC= (MIC of fosfomycin in combination/MIC of fosfomycin alone) + (MIC of SF2312 in combination/MIC of the SF2312 alone). A calculated FIC index of less than 0.5 represented a synergistic effect (i.e., total effect greater than the sum of the individual antibiotic effects), a value between 0.5–2 represented an additive effect (i.e. no additional contribution from including the second antibiotic, compared with when the first antibiotic. A value greater than 2 represented an antagonistic effect (i.e., total effect less than the sum of the individual effects)[26].

The subject of test [4] is E. coli ATCC 25922. Kind of test: MIC, microdilution broth assay. It counts as cell-based. The following applies: Escherichia coli.
From the text: as §1

Test [5] deals with S. aureus ATCC 43300. Nature of the test: MIC, microdilution broth assay. It counts as cell-based. The following applies: Staphylococcus aureus.
From the text: as §1

In test [6] the test system is ENO1-rescued cells. Also noted: method as in earlier work. The following applies: isogenic ENO1-rescued glioma cells; ref 5 (Leonard et al.); cited from earlier work.
Test [7] concerns P. aeruginosa ATCC 27853. Kind of test: MIC, microdilution broth assay. It counts as cell-based, Pseudomonas aeruginosa.
From the text: as §1
On the technique in general: In broth dilution the organism is exposed to a series of concentrations in liquid medium.

Test [8] has as its system A. baumannii ATCC 19606. Kind of test: MIC, microdilution broth assay. It counts as cell-based, Acinetobacter baumannii.
From the text: as §1

Setting [9] is: CAHM media with 25 μg/mL Glucose-6-Phosphate.

Values joined by “and” are separate entries in the source; they are usually repeats but may differ in a detail not shown here. Equal entries are not always repeated. Where two headings read alike, the source gives them in different places.

T1 sequence (P0A6P9 whole entry): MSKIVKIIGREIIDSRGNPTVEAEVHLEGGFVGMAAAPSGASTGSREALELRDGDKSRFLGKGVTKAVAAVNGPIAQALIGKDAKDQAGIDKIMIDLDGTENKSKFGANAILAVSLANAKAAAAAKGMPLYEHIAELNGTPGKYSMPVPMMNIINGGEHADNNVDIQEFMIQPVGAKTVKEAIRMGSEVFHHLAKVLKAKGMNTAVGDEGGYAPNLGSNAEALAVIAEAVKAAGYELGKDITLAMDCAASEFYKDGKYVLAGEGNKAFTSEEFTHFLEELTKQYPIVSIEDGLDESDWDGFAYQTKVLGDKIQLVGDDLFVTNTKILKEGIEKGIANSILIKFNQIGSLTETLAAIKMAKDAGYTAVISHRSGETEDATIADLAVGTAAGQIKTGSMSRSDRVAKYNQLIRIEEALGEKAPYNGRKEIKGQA

One may read the IC50 as the concentration needed to halve the response being measured. The Ki is the equilibrium dissociation constant of an inhibitor or competing ligand from its target. As for `O=C1CC(P(=O)(O)O)C(=O)N1O` (stereo not drawn) [KSF, (1-hydroxy-2,5-dioxopyrrolidin-3-yl)phosphonic acid], in test [1], the 50% inhibitory concentration (IC50) is 7.67 µM and 7.7 µM; the inhibitory constant (Ki) was 1400 nM. The “loss in activity between SF2312 and KSF” value in test [1] (ratio of IC50 values) is “over 400 fold”. In addition, in test [2], the “protein thermal melting point (Tm)” value is 70.85 °C and the “shift of thermal melting point” value was ~18 °C.

In general, MIC refers to the smallest concentration in the dilution series that meets the test's criterion for growth inhibition. What is called GI50 is the concentration giving 50% growth inhibition. Regarding `O=C1C(P(=O)(O)O)CC(O)N1O` (stereo not drawn) [SF2312, 3-Dihydroxyphosphoryl-1-,5-dihydroxy-2-pyrrolidone], the MIC is 100 µg/mL in test [3] (ATCC25922, read-out: MIC alone); 100 µg/mL in test [4] (ATCC25922, CAHM media with 25 μg/mL Glucose-6-Phosphate); 400 µg/mL in test [4] (ATCC25922, CAHM media without Glucose-6-Phosphate); 20 µg/mL in test [5] (ATCC43300, CAHM media with 25 μg/mL Glucose-6-Phosphate); 100 µg/mL in test [5] (ATCC43300, CAHM media without Glucose-6-Phosphate); 50 µg/mL in test [7] (setting [9]). For the same molecule, the minimal inhibitory concentration (MIC) in test [7] (Pseudomonas aeruginosa, ATCC27853) is 50 µg/mL; in test [8] (Acinetobacter baumannii, ATCC19606) it was > 400 µg/mL; in test [8] (setting [9]), >400 µg/mL. In test [3], the “maximum drop of E. coli MIC when co-administered” value was determined as 16 fold. In test [6], the concentration for 50% growth inhibition (GI50) is > 200 µM. The IC50 in test [1] was 0.0184 ± 0.00284 µM. Besides, the Ki in test [1] came to 3.4 nM. Besides, the “protein thermal melting point (Tm)” value in test [2] is ~ 82 °C and 81.75 °C. For the same molecule, in test [2], the “shift of thermal melting point” value was ~29 °C.

Consider `C[C@@H]1O[C@@H]1P(=O)(O)O` [fosfomycin], for which the minimal inhibitory concentration (MIC) is 1.25 µg/mL in test [3] (ATCC25922, checkerboard, partner agent 0 μg/mL, 25 μg/mL glucose-6-phosphate, read-out: MIC alone); 1.25 µg/mL in test [4] (ATCC25922, CAHM media with 25 μg/mL Glucose-6-Phosphate, read-out: MIC); > 10 µg/mL in test [4] (ATCC25922, CAHM media without Glucose-6-Phosphate, read-out: MIC); 2.5 µg/mL in test [5] (ATCC43300, CAHM media with 25 μg/mL Glucose-6-Phosphate, read-out: MIC); 20 µg/mL in test [5] (ATCC43300, CAHM media without Glucose-6-Phosphate, read-out: MIC); 5 µg/mL in test [7] (setting [9]). Besides, the minimum inhibitory concentration (MIC) in test [7] (Pseudomonas aeruginosa, ATCC27853, CAHM media without Glucose-6-Phosphate, read-out: MIC) was 5 µg/mL; in test [8] (Acinetobacter baumannii, ATCC19606, CAHM media without Glucose-6-Phosphate, read-out: MIC) it was > 20 µg/mL; in test [8] (setting [9]) it was >20 µg/mL. For the same molecule, the “maximum drop of E. coli MIC when co-administered” value in test [3] came to 4 fold.
